Read-outs that look alike come from different tables or passages of the source. Peptide text beside a SMILES is read from it. * marks the point of attachment. Heptanoyl = CCCCCCC(=O)*; Octanoyl = CCCCCCCC(=O)*; Hexanoyl = CCCCCC(=O)*; Pentanoyl = CCCCC(=O)*

Data on 21 compounds can be found in patent US20250320261A1, “ANTIBACTERIAL PEPTIDE” (priority 2021, published 2025).

Series [1] relates to S. aureus (ATCC 29213, MSSA). The format is cell-based, Staphylococcus aureus. Conditions: for antimicrobial activity against S. aureus (in words): compared with peptide #6 or the parent lipopeptide. The method, then: (§1) S. aureus (ATCC 29213, MSSA, ATCC, Manassas, VA) and E. coli (K-12 MG1655) were streaked on Luria-Bertani (LB) agar plates and incubated at 37° C. overnight. Single colonies were inoculated into 5 ml of LB broth and incubated on a shaker (400 rpm) at 37° C. overnight. The bacterial concentrations were determined by viable count and were adjusted to correlate with approximately 10^9 CFU/ml.
(§2) The broth microdilution method was used to determine minimal inhibitory concentration (MIC) and minimal bactericidal concentration (MBC). Two-fold serial dilutions of the peptides were used, and the final concentrations ranged from 0.19-100 μM. The effect of peptide-antibiotic combinations was investigated by performing a checkerboard analysis. […] The fractional inhibitory concentration (FIC) and fractional bactericidal concentration (FBC) were calculated by the equation (MIC or MBC of peptide in combination/MIC or MBC of peptide […] alone)+(MIC or MBC of antibiotic in combination/MIC or MBC of antibiotic alone). Synergy was defined as FIC/FBC≤0.5, additive when 0.5<FIC/FBC≤1, indifferent when 1<FIC/FBC<2 and antagonistic when FIC/FBC≥2. All experiments were repeated at least three times.

A further series has as its system E. coli (K-12 MG1655). In words: Broth microdilution MIC/MBC. The series is classed as cell-based, Escherichia coli. Conditions: for antimicrobial activity against E. coli (in words): compared with peptide #6 or the parent lipopeptide. The procedure: as §1, §2
Another series has as its system S. aureus. In words: Checkerboard analysis of peptide-antibiotic combinations. The format is cell-based, Staphylococcus aureus. Conditions: combined with different antibiotics. The method, then:
as §2

In the next series the test system is E. coli. The description is as above. The format is cell-based, Escherichia coli. The conditions noted are these: combined with different antibiotics. The procedure: as §2
Series [2] concerns HaCaT keratinocytes infected with S. aureus. In words: LDH cytotoxicity and cytokine secretion of S. aureus-infected HaCaT keratinocytes. The series is classed as cell-based, human. Conditions: 24 h, vs positive control. The method, then: After 24 hours of exposure to Staphylococcus aureus (MOI=0.1), and three administrations of L-6-C5-N (2.5, 5, 10, 20 and 40 μM) at 1, 5 and 9 hours post infection. (A) Cytotoxicity, LDH levels normalized against negative control. (B) Interleukin-6. (C) Tumor Necrosis Factor-α. (D) CXC motif ligand 8 levels. (−) indicates negative control (uninfected/unstimulated cells), (+) indicates positive control (S. aureus-infected cells). Statistical analysis was done by ANOVA with Tukey's post hoc test. P-values are indicated by *=[…], ***=0.001.
It was evaluated whether the peptide SEQ ID NO:3 having L-amino acids and an acetylation with five carbon atoms at the N-terminal portion (L-6-C5-N) could effectively reduce an inflammatory response to a bacterial infection to HaCaT keratinocytes. After 24 hours of exposure to Staphylococcus aureus (MOI=0.1), and three administrations of L-6-C5-N SEQ ID NO:3 in different concentrations (2.5, 5, 10, 20 and 40 μM) at 1, 5 and 9 hours post infection, a LDH cytotoxicity assay was performed and IL-6, TNF-α and CXCL-8 concentrations were measured. The symbol (−) indicates negative control (uninfected/unstimulated cells), (+) indicates positive control (S. aureus-infected cells).

Another series deals with human erythrocytes. The format is cell-based. Conditions: red cells of human, 1 h, 100 μM. The method, then:
FIG. 4. Hemolytic activity of SEQ ID NO 1 and SEQ ID NO 3. The hemolytic activity was determined on human erythrocytes (15% suspended in PBS) after exposure to A) SEQ ID NO: 3 with increasing length of fatty acid chains and full length PLNC8 β, B) L-enantiomers of SEQ ID NO: 3 with a fatty acid chain length of 5, 6, and 7 carbon (L-6-C5-N; L-6-C6-N; L-6-C7-N), and L-enantiomers of SEQ ID NO 1 with a fatty acid chain length of 5, 6, and 7 carbon (L-6-C5-N-Leu; L-6-C6-N-Leu; L-6-C7-N-Leu), C) D-enantiomers of SEQ ID NO: 3 with a fatty acid chain length of 5, 6, and 7 carbon (D-6-C5-N; D-6-C6-N; D-6-C7-N), and D-enantiomers of SEQ ID NO: 1 with a fatty acid chain length of 5, 6, and 7 carbon (D-6-C5-N-Leu; D-6-C6-N-Leu; D-6-C7-N-Leu). Erythrocytes were exposed to the peptides using the indicated concentrations for 1 h. […]
The hemolytic activity of the peptides was investigated by collecting blood from healthy volunteers in heparinized vacutainers. […] The plates were incubated for 1 h at 37° C. followed by centrifugation for 5 min at 900×g and absorbance measurement of the supernatants at 540 nm. Hemolytic activity (%) was calculated by subtracting the negative control from all values and normalization against the positive control (0.5% Triton X-100), that was set to 100%. […]

Take “Ac-LGIKILRSARKFGKVIEKSF-NH2 [Peptide 15]”: in series [1] (ATCC 29213, 20 h), the “MBC S. aureus” value was over 100 µM and the “MIC S. aureus” value was over 100 µM. Further, in the series on E. coli (K-12 MG1655) (broth microdilution), the “MBC E. coli” value was over 100 µM and the “MIC E. coli” value was over 100 µM.
On to “6-C6-N: L-enantiomer of SEQ ID NO: 3 with a fatty acid chain length of 6 carbon (Hexanoyl-LGIKILWSAYKHRKTI-NH2; also: C6 fatty acid chain, site not given here) [Peptide 6-C6-N]”, for which the “antimicrobial activity against S. aureus (in words)” value in series [1] is listed as “maximum”. Also, the “antimicrobial activity against E. coli (in words)” value with E. coli (K-12 MG1655) is “maximum”.
Consider “Ac-LGQKILRSARKFGKTIEKSF-NH2 [Peptide 13]”, for which, in series [1] (ATCC 29213, 20 h), the “MBC S. aureus” value was over 100 µM and the “MIC S. aureus” value was over 100 µM. Moreover, in the series on E. coli (K-12 MG1655) (broth microdilution), the “MBC E. coli” value was over 100 µM and the “MIC E. coli” value was over 100 µM.
Regarding “Ac-LLGIKILWSARKFGKVIEKSF-NH2 [Peptide 17]”, in series [1] (ATCC 29213, 20 h), the “MBC S. aureus” value is over 100 µM and the “MIC S. aureus” value was over 100 µM. In the series on E. coli (K-12 MG1655) (broth microdilution), the “MBC E. coli” value is over 100 µM and the “MIC E. coli” value was over 100 µM.
Turning to “Ac-SVPTSVYTLGIKILWSAYKHRKTIEKSFNKGFYH-NH2 (N-terminus and C-terminus assumed) [PLNC8 β, reference compound]”, in series [1] (ATCC 29213), the “MBC S. aureus” value was over 100 µM and the “MIC S. aureus” value is over 100 µM. For the same compound, in the series with E. coli (K-12 MG1655) (K-12), the “MBC E. coli” value was over 100 µM and the “MIC E. coli” value was over 100 µM. Moreover, the “antimicrobial activity against E. coli (in words)” value in the series on E. coli (K-12 MG1655) was “no activity”.
Take Ac-YTLGIKILWSAYKHRK-NH2 [Peptide 4]: in series [1] (ATCC 29213, 20 h), the “MBC S. aureus” value is over 100 µM and the “MIC S. aureus” value was over 100 µM. Moreover, in the series on E. coli (K-12 MG1655) (broth microdilution), the “MBC E. coli” value is over 100 µM and the “MIC E. coli” value is over 100 µM.
Turning to “Ac-LLGIKILWKARKFGKVIEKSF-NH2 [Peptide 18]”, in series [1] (ATCC 29213, 20 h), the “MBC S. aureus” value is over 100 µM and the “MIC S. aureus” value was over 100 µM. In the series on E. coli (K-12 MG1655) (broth microdilution), the “MBC E. coli” value is over 100 µM and the “MIC E. coli” value came out at 100 µM.
With Ac-TLGIKILWSAYKHRKT-NH2 [Peptide 5], in series [1] (ATCC 29213, 20 h), the “MBC S. aureus” value is over 100 µM and the “MIC S. aureus” value was over 100 µM. In addition, in the series with E. coli (K-12 MG1655) (broth microdilution), the “MBC E. coli” value is over 100 µM and the “MIC E. coli” value is over 100 µM.
For Ac-ILWSAYKHR-NH2 [Peptide S2], in the series on E. coli (K-12 MG1655) (broth microdilution), the “MBC E. coli” value is over 100 µM and the “MIC E. coli” value was over 100 µM.
In the case of “Ac-LGQKILRSARKFGKDIEKSF-NH2 [Peptide 14]”, in series [1] (ATCC 29213, 20 h), the “MBC S. aureus” value is over 100 µM and the “MIC S. aureus” value was over 100 µM. In addition, in the series on E. coli (K-12 MG1655) (broth microdilution), the “MBC E. coli” value was over 100 µM and the “MIC E. coli” value is over 100 µM.
For “Ac-LGIKILWSARKFGKVIEKSF-NH2 [Peptide 16]”, in series [1] (ATCC 29213, 20 h), the “MBC S. aureus” value is over 100 µM and the “MIC S. aureus” value is over 100 µM. Further, in the series with E. coli (K-12 MG1655) (broth microdilution), the “MBC E. coli” value was over 100 µM and the “MIC E. coli” value was over 100 µM.
Consider “6-C2-N: peptide #6 (SEQ ID NO: 3) acetylated with two carbon atoms at the N-terminal (Ac-LGIKILWSAYKHRKTI-NH2) [Peptide 6-C2-N]”, for which, in the series on S. aureus, the “interaction with antibiotics (FIC/FBC) against S. aureus” value is “additive or synergistic”. Moreover, the “interaction with antibiotics (FIC/FBC) against E. coli” value in the series on E. coli is given as “additive or synergistic”.
As to Ac-WSAYKH-NH2 [Peptide S5, WSAYKH], in the series with E. coli (K-12 MG1655) (broth microdilution), the “MBC E. coli” value was over 100 µM and the “MIC E. coli” value was over 100 µM.
On to Ac-KILWSAYKHR-NH2 [Peptide S1], for which, in the series with E. coli (K-12 MG1655) (broth microdilution), the “MBC E. coli” value was over 100 µM and the “MIC E. coli” value was over 100 µM.
As for Ac-WSAYKHR-NH2 [Peptide S4, WSAYKHR], in the series on E. coli (K-12 MG1655) (broth microdilution), the “MBC E. coli” value was over 100 µM and the “MIC E. coli” value is over 100 µM.
As for “6-C5-N: SEQ ID NO:3 having L-amino acids and an acetylation with five carbon atoms at the N-terminal portion (Pentanoyl-LGIKILWSAYKHRKTI-NH2) [Peptide 6-C5-N]”, in series [1], the “antimicrobial activity against S. aureus (in words)” value is “maximum”. Besides, the “antimicrobial activity against E. coli (in words)” value with E. coli (K-12 MG1655) is listed as “maximum”. In the series on S. aureus, the “interaction with antibiotics (FIC/FBC) against S. aureus” value was “additive or synergistic”. In the series on E. coli, the “interaction with antibiotics (FIC/FBC) against E. coli” value is given as “additive or synergistic”. Besides, in series [2] (MOI=0.1, 2.5-40 μM at 1, 5 and 9 h post infection), the “IL-6 secretion, infected HaCaT” value is “significantly reduced”. The “cell lysis (LDH) of S. aureus-infected HaCaT keratinocytes” value in series [2] (MOI=0.1, 2.5-40 μM given at 1, 5 and 9 h post infection) is “significantly reduced”.
As to Ac-LWSAYKHR-NH2 [Peptide S3], in the series with E. coli (K-12 MG1655) (broth microdilution), the “MBC E. coli” value was over 100 µM and the “MIC E. coli” value is over 100 µM.
As for Ac-LGIKILWSAYKHRKTI-NH2 [Peptide 6], in series [1] (broth microdilution), the “MBC S. aureus” value was 100 µM and the “MIC S. aureus” value was determined as 100 µM. In the series on E. coli (K-12 MG1655) (broth microdilution), the “MBC E. coli” value is 50 µM and the “MIC E. coli” value worked out at 50 µM. Moreover, the “antimicrobial activity against E. coli (in words)” value in the series with E. coli (K-12 MG1655) is on record as “comparable to the activity of LL-37”.
Consider `CCCCCCCC(=O)N[C@@H](CC(C)C)C(=O)NCC(=O)N[C@H](C(=O)N[C@@H](CCCCN)C(=O)N[C@H](C(=O)N[C@@H](CC(C)C)C(=O)N[C@@H](Cc1c[nH]c2ccccc12)C(=O)N[C@@H](CO)C(=O)N[C@@H](C)C(=O)N[C@@H](Cc1ccc(O)cc1)C(=O)N[C@@H](CCCCN)C(=O)N[C@@H](Cc1c[nH]cn1)C(=O)N[C@@H](CCCNC(=N)N)C(=O)N[C@@H](CCCCN)C(=O)N[C@H](C(=O)N[C@H](C(N)=O)[C@@H](C)CC)[C@@H](C)O)[C@@H](C)CC)[C@@H](C)CC` [Peptide 6-C8-N] (Octanoyl-LGIKILWSAYKHRKTI-NH2), for which the “antimicrobial activity against S. aureus (in words)” value in series [1] is “did not affect the antimicrobial activity”. Further, in the series with E. coli (K-12 MG1655) (broth microdilution), the “MBC E. coli” value is 12.5 µM and the “MIC E. coli” value came to 12.5 µM.
Consider `CCCCCCC(=O)N[C@@H](CC(C)C)C(=O)NCC(=O)N[C@H](C(=O)N[C@@H](CCCCN)C(=O)N[C@H](C(=O)N[C@@H](CC(C)C)C(=O)N[C@@H](Cc1c[nH]c2ccccc12)C(=O)N[C@@H](CO)C(=O)N[C@@H](C)C(=O)N[C@@H](Cc1ccc(O)cc1)C(=O)N[C@@H](CCCCN)C(=O)N[C@@H](Cc1c[nH]cn1)C(=O)N[C@@H](CCCNC(=N)N)C(=O)N[C@@H](CCCCN)C(=O)N[C@H](C(=O)N[C@H](C(N)=O)[C@@H](C)CC)[C@@H](C)O)[C@@H](C)CC)[C@@H](C)CC` [Peptide 6-C7-N] (Heptanoyl-LGIKILWSAYKHRKTI-NH2), for which the hemolytic activity result in the series on human erythrocytes is reported as “around 10%”.
Turning to Ac-WSAYK-NH2 [Peptide S6, WSAYK], in the series with E. coli (K-12 MG1655) (broth microdilution), the “MBC E. coli” value is over 100 µM and the “MIC E. coli” value is over 100 µM.
